In US10669238B2, “Irreversible bruton's tyrosine kinase inhibitor” (HEFEI INSTITUTES OF PHYSICAL SCIENCE, CHINESE ACADEMY OF …, priority 2016, dated 2020):

Assays:
[1] = molecular target: T1, TEL-BMX-BaF3 cells (stably expressing TEL-BMX activated kinase) (Homo sapiens, UniProt P51813); test: Cell proliferation (Cell Titer-Glo), BaF3-tel-BMX; format: cell-based; settings: BaF3-tel-BMX (mouse BaF3 cells), 72 hours; read-out: Effects on cell proliferation (GI50)
T1 construct: expressed in transfected cells; host or cells: mouse BaF3 cells, retroviral MSCV-Puro; the other entry of the earlier key: ETV6 (P41212, Transcription factor ETV6)
Method: (§1) The selectivity of Compound 1 in inhibiting the proliferation of cancer cells was further evaluated by testing the effect of Btk inhibitors on the growth of cancer cells. […]
(§2) In this example different concentrations (0.000508 μM, 0.00152 μM, 0.00457 μM, 0.0137 μM, 0.0411 μM, 0.123 μM, 0.370 μM, 1.11 μM, 3.33 μM, 10 μM) of Compound 1 and Compound 6 were respectively added into the above cells which were then cultured for 72 hours. The number of viable cells was determined via quantitative determination of ATP in living cells by using Cell Titer-Glo® (Promega, the USA) Chemical Luminescent Cell Viability Assay kit.

[2] = system: multiple myeloma cell lines RPM18226; test: Cell proliferation (Cell Titer-Glo), RPMI8226; format: cell-based; settings: Homo sapiens, RPMI-8226; RPMI8226, 72 hours; read-out: Effects on cell proliferation (GI50)
Method: as §1, §2

[3] = system: Pfeiffer (human diffuse large cell lymphoma B lymphocytes); test: Cell cycle distribution by flow cytometry in Pfeiffer; format: cell-based; settings: 10 μM, 48 hours
Method: (§3) Effect of Compound 1 on cell cycle distribution was examined respectively in Pfeiffer (human diffuse large cell lymphoma B lymphocytes, purchased from Cobioer Biosciences Co., LTD (Nanjing)) and U2932 (B-cell lymphoma cells, purchased from ATCC) cells in order to study the growth cycle to which the cells were blocked upon compound administration. The above cells were treated with various concentrations (0.5 μM, 1 μM, 5 μM, 10 μM) of Compound 1, 10 μM of PC132765 and 10 μM of Compound 6 (FIG. 4a) or 1 μM of Compound 6 (FIG. 4b) for 48 hours, and then cells were collected and washed twice with 1×PBS buffer, and fixed with 75% ethanol at −20° C. for 24 hours, washed again with 1×PBS buffer twice, followed by addition of 0.5 mL 1×PBS buffer and 0.5 mL of PI dyeing liquor (purchased from BD Bioscience, USA), and then the cells were placed in the dark at 37° C. for dyeing 15 minutes and the cell cycle distribution was detected by flow cytometry (BD FACS Calibur).
(§4) Experiments shown in FIGS. 4a-4b reflected that Compound 1 influenced the cell cycle of both two cell strains.

[4] = system: acute myeloid leukemia cell lines MOLM13; test: Cell proliferation (Cell Titer-Glo), MOLM13; format: cell-based; settings: Homo sapiens, MOLM-13; MOLM13, 72 hours; read-out: Effects on cell proliferation (GI50)
Method: as §1, §2

[5] = system: phosphorylation of tyrosine Y223 on Btk; test: Effects on BTK Y223 and downstream signaling pathway proteins in cells (anti-IgM stimulation); format: cell-based, human; settings: Compound 1 in MEC-2, Pfeiffer, Ramos, TMD8, U2932; Compound 35 in MEC-1; 4 hours, then anti-IgM 10 mins
Description: By assaying a number of cellular biochemical and functional endpoints, the properties of the compounds were further characterized. […] In this experiment, PC132765 (purchased from Shanghai Haoyuan Chemexpress Co., Ltd.), CGI11746 (purchased from Shanghai Haoyuan Chemexpress Co., Ltd.) and Compound 6 (prepared herein) were used as control (see FIGS. 2a-2f).
Effects of the compounds on phosphorylation of BTKY223, BTKY551, PLCγ1Y783, PLCγ2Y759, PLCγ2Y1217, P—NF-κB P65, P-AKT Ser473, Erk Thr202/Tyr204 and the like were determined (FIGS. 2a-2f).

[6] = system: Pfeiffer (human diffuse large cell lymphoma B lymphocytes); test: Cell apoptosis (PARP and Caspase 3 cleavage) in Pfeiffer; format: cell-based; settings: 48 hours
Method: (§5) Various concentrations (0.5 μM, 1 μM, 5 μM, 10 μM) of Compound 1 was administered to Pfeiffer (human diffuse large cell lymphoma B lymphocytes, purchased from Cobioer Biosciences Co., LTD (Nanjing)) and U2932 (B-cell lymphoma cells, purchased from ATCC) in order to confirm whether cell death after the administration was caused by apoptosis or necrosis. After 48 hours, effects of Compound 1 on protein cleavage of the DNA repairase poly(ADP-ribose) polymerase (PARP) and Caspase (cysteinyl aspartate-specific proteinase) 3 that were closely related to cell apoptosis was examined.

[7] = system: U2932 (B-cell lymphoma cells); test: Cell apoptosis (PARP and Caspase 3 cleavage) in U2932; format: cell-based
Method: as §5

[8] = system: U2932 (B-cell lymphoma cells); test: Cell cycle distribution by flow cytometry in U2932; format: cell-based; settings: U2932, 10 μM, 48 hours
Method: as §3, §4

T1 sequence (P51813 417-675 limits assumed): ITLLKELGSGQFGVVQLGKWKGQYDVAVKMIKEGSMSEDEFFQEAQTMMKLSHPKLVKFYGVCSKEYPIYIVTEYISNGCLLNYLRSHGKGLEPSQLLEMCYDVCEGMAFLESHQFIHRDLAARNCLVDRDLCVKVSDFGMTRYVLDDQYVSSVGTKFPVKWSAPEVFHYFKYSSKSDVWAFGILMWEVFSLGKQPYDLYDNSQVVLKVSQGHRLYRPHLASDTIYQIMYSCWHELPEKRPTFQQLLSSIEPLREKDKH

GI50 [1] | GI50 [2] | GI50 [4] | Compound | effect on cell cycle [3] | phosphorylation of tyrosine Y223 on Btk [5] | cleavage of DNA repairase poly(ADP-ribose) polymerase (PARP) ([6]; 10 μM) | cell apoptosis [6] | cleavage of DNA repairase poly(ADP-ribose) polymerase (PARP) ([7]; U2932, 10 μM, 48 hours) | cell apoptosis ([7]; U2932, 48 hours) | effect on cell cycle [8]
0.38 µM | 2.9 µM | 2.2 µM | C=CC(=O)Nc1cc(Nc2cc(-c3cccc(NC(=O)c4ccc(C(C)(C)C)cc4)c3C)cn(C)c2=O)ccc1C(=O)N1CCOCC1 [Compound 1, N-(3-(5-((3-acrylamide-4-(morpholin-4-carbonyl)phenyl)amino)-1-methyl-6-oxo-1,6-dihydropyridin-3-yl)-2-methylphenyl)-4-(tert-butyl)benzamide] | significant cell cycle arrest in G0-G1 | selectively and significantly inhibit phosphorylation of tyrosine Y223 on Btk | significant cleavage | could lead to cell apoptosis | significant cleavage | could lead to cell apoptosis | significant cell cycle arrest in G0-G1
4.1 µM | 4.7 µM | 4 µM | CCC(=O)Nc1cc(Nc2cc(-c3cccc(NC(=O)c4ccc(C(C)(C)C)cc4)c3C)cn(C)c2=O)ccc1C(=O)N1CCOCC1 [Compound 6, N-(3-(5-((3-propanamide-4-(morpholin-4-carbonyl)phenyl)amino)-1-methyl-6-oxo-1,6-dihydropyridin-3-yl)-2-methylphenyl)-4-(tert-butyl)benzamide] | – | – | – | – | – | – | –
